Assay results: ChEMBL document CHEMBL6127102 (Bioorg Med Chem, 2024)
Activity calls are given as the source filed them. The rule behind the calls is not given here.

Legend:
[1] = Toxicity in BALB/c nude mouse xenografted with human MDA-MB-231 cells assessed as damage in spleen at 38 mg/kg, ip administered on every 2 days for 28 days by H and E staining based analysis; type: organism-based; conditions: in vivo, 672 h, time 28 day
[2] = molecular target: Poly [ADP-ribose] polymerase 1 (Homo sapiens, UniProt P09874); assay: Inhibition of PARP1 (unknown origin) using histone as substrate incubated for 60 mins by ELISA
Chain of Poly [ADP-ribose] polymerase 1 (P09874 whole entry): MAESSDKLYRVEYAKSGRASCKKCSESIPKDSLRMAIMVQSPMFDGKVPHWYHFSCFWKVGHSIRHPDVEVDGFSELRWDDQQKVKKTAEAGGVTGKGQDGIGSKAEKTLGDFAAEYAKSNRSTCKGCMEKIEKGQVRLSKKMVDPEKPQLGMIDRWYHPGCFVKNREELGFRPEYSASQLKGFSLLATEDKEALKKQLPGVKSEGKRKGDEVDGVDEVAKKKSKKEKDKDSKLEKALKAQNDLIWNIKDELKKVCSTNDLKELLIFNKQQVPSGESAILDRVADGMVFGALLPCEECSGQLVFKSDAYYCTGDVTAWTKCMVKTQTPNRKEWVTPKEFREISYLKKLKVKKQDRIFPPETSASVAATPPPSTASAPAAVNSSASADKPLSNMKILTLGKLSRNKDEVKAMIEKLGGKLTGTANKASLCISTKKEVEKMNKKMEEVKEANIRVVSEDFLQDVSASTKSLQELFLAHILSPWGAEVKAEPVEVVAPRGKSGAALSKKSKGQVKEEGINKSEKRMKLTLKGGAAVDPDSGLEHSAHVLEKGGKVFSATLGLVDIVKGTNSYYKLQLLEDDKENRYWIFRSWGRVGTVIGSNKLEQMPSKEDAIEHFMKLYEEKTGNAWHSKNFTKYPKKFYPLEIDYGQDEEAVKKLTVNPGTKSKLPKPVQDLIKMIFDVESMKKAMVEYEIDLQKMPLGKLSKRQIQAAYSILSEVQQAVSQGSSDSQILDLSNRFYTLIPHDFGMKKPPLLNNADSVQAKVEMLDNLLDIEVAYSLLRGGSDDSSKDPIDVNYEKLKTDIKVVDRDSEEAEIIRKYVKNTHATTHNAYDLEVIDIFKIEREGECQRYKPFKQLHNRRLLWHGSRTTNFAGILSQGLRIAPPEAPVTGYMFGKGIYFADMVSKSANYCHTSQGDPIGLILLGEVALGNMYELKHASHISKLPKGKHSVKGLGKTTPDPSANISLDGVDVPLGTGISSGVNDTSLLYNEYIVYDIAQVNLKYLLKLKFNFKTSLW

MDA-MB-231 [3] = assay: Induction of apoptosis in human MDA-MB-231 cells assessed as decrease in Bcl-2 level at 5 uM incubated for 24 hrs by Western blot analysis; type: functional, cell-based
MDA-MB-231 [4] = assay: Induction of depolarization of mitochondrial membrane potential in human MDA-MB-231 cells at 5 uM incubated for 24 hrs by JC-1 staining based flow cytometry relative to control; type: functional
[5] = Toxicity in BALB/c nude mouse xenografted with human MDA-MB-231 cells assessed as damage in liver at 38 mg/kg, ip administered on every 2 days for 28 days by H and E staining based analysis; type: organism-based; conditions: in vivo, 672 h, time 28 day
MDA-MB-231 [6] = assay: Anti-migration activity in human MDA-MB-231 cells assessed as wound closure area at 1 uM incubated for 24 hrs by wound healing assay (reference value: 75.6 %); type: functional
[7] = Toxicity in BALB/c nude mouse xenografted with human MDA-MB-231 cells assessed as damage in lung at 38 mg/kg, ip administered on every 2 days for 28 days by H and E staining based analysis; type: organism-based; conditions: in vivo, 672 h, time 28 day
MDA-MB-231 [8] = assay: Induction of DNA damage in human MDA-MB-231 cells assessed as increase in gamma-H2AX level at 5 uM incubated for 24 hrs by immunofluorescence based analysis; type: functional, cell-based
MDA-MB-231 [9] = assay: Antitumor activity against human MDA-MB-231 cells xenografted in BALB/c nude mouse at 38 mg/kg, ip administered on every 2 days for 28 days relative to control; type: functional; conditions: MDA-MB-231, 672 h, time 28 day, read-out: TGI
MDA-MB-231 [10] = assay: Induction of apoptosis in human MDA-MB-231 cells as increase in red fluorescence at 5 uM incubated for 24 hrs by Calcein AM/PI staining based confocal microscopy; type: functional, cell-based
[11] = Cytotoxicity against human MCF-10A cells incubated for 72 hrs by MTT assay; type: toxicity, cell-based
MDA-MB-231 [12] = assay: Effect on MEK phosphorylation in human MDA-MB-231 cells at 5 uM incubated for 24 hrs by Western blot analysis; type: functional, cell-based
MDA-MB-231 [13] = assay: Antitumor activity against human MDA-MB-231 cells xenografted in BALB/c nude mouse assessed as increase in necrotic cells at 38 mg/kg, ip administered on every 2 days for 28 days by H and E staining based analysis; type: functional, organism-based; conditions: time 28.0 day
MDA-MB-468 = assay: Antitumor activity against human MDA-MB-468 cells harboring wild-type BRCA incubated for 72 hrs by MTT assay; type: functional, cell-based; conditions: MDA-MB-468, 72 h
MDA-MB-231 [14] = assay: Induction of apoptosis in human MDA-MB-231 cells assessed as increase in cleaved caspase-9 level at 5 uM incubated for 24 hrs by Western blot analysis; type: functional, cell-based
MDA-MB-231 [15] = assay: Effect on ERK1/2 phosphorylation in human MDA-MB-231 cells at 5 uM incubated for 24 hrs by Western blot analysis; type: functional, cell-based
MDA-MB-231 [16] = assay: Effect on RAF expression in human MDA-MB-231 cells at 5 uM incubated for 24 hrs by Western blot analysis; type: functional, cell-based
MDA-MB-231 [17] = assay: Effect on total MEK in human MDA-MB-231 cells at 5 uM incubated for 24 hrs by Western blot analysis; type: functional, cell-based
MDA-MB-231 [18] = assay: Induction of apoptosis in human MDA-MB-231 cells assessed as increase in Bax level at 5 uM incubated for 24 hrs by Western blot analysis; type: functional, cell-based
MDA-MB-231 [19] = assay: Antitumor activity against human MDA-MB-231 cells xenografted in BALB/c nude mouse assessed as decrease in Ki-67 expression at 38 mg/kg, ip administered on every 2 days for 28 days by H and E staining based analysis; type: functional, organism-based; conditions: time 28.0 day
MDA-MB-231 [20] = assay: Induction of apoptosis in human MDA-MB-231 cells at 5 uM incubated for 24 hrs by Annexin V-FITC/PI staining based flow cytometry relative to control; type: functional
MDA-MB-231 [21] = assay: Antitumor activity against human MDA-MB-231 cells harboring wild-type BRCA incubated for 72 hrs by MTT assay; type: functional, cell-based; conditions: MDA-MB-231, 72 h
[22] = Toxicity in BALB/c nude mouse xenografted with human MDA-MB-231 cells assessed as drug tolerance at 38 mg/kg, ip administered on every 2 days for 28 days; type: organism-based; conditions: in vivo, 672 h, time 28 day
MDA-MB-231 [23] = assay: Effect on total ERK1/2 in human MDA-MB-231 cells at 5 uM incubated for 24 hrs by Western blot analysis; type: functional, cell-based
MDA-MB-231 [24] = assay: Induction of apoptosis in human MDA-MB-231 cells assessed as increase in cleaved PARP level at 5 uM incubated for 24 hrs by Western blot analysis; type: functional, cell-based
MDA-MB-231 [25] = assay: Induction of DNA damage in human MDA-MB-231 cells assessed as increase in olive tail moments at 5 uM incubated for 24 hrs by Comet assay; type: functional, cell-based
[26] = Toxicity in BALB/c nude mouse xenografted with human MDA-MB-231 cells assessed as body weight change at 38 mg/kg, ip administered on every 2 days for 28 days; type: organism-based; conditions: in vivo, 672 h, time 28 day
MDA-MB-231 [27] = assay: Antitumor activity against human MDA-MB-231 cells xenografted in BALB/c nude mouse assessed as increase in apoptotic cells at 38 mg/kg, ip administered on every 2 days for 28 days by H and E staining based analysis; type: functional, organism-based; conditions: time 28.0 day
MDA-MB-436 = assay: Antitumor activity against BRCA 1-deficient human MDA-MB-436 cells incubated for 72 hrs by MTT assay; type: functional, cell-based; conditions: MDA-MB-436, 72 h
MDA-MB-231 [28] = assay: […] activity in human MDA-MB-231 cells at 1 uM incubated for 24 hrs by wound healing assay; type: functional, cell-based
MDA-MB-231 [29] = assay: Effect on CRAF expression in human MDA-MB-231 cells at 5 uM incubated for 24 hrs by Western blot analysis; type: functional, cell-based
[30] = Toxicity in BALB/c nude mouse xenografted with human MDA-MB-231 cells assessed as damage in heart at 38 mg/kg, ip administered on every 2 days for 28 days by H and E staining based analysis; type: organism-based; conditions: in vivo, 672 h, time 28 day
MDA-MB-231 [31] = assay: Induction of apoptosis in human MDA-MB-231 cells assessed as increase in cleaved caspase-3 level at 5 uM incubated for 24 hrs by Western blot analysis; type: functional, cell-based
MDA-MB-231 [32] = assay: Induction of ROS generation in human MDA-MB-231 cells at 5 uM incubated for 24 hrs by DCFH-DA staining based flow cytometric analysis; type: functional, cell-based
HCC1937 = assay: Antitumor activity against BRCA 1-deficient human HCC1937 cells incubated for 72 hrs by MTT assay; type: functional, cell-based; conditions: HCC1937, 72 h
[33] = Toxicity in BALB/c nude mouse xenografted with human MDA-MB-231 cells assessed as damage in kidney at 38 mg/kg, ip administered on every 2 days for 28 days by H and E staining based analysis; type: organism-based; conditions: in vivo, 672 h, time 28 day

Question: With `COc1cc(OC)c(/C=C/S(=O)(=O)Cc2ccc(OC)c(NCCCC(=O)N3CCN(C(=O)c4cc(Cc5n[nH]c(=O)c6ccccc56)ccc4F)CC3)c2)c(OC)c1` as the molecule, how does the Activity [1] read?
Answer: Non-Toxic

Question: And the IC50 [2]?
Answer: 0.112 µM

Question: What about the Activity (MDA-MB-231 [3]) of the same molecule?
Answer: Active

Question: What about the Activity (MDA-MB-231 [4]) of the same molecule?
Answer: Active

Question: What about the Activity [5] of the same molecule?
Answer: Non-Toxic

Question: And the Activity (MDA-MB-231 [6])?
Answer: 17.3%

Question: And the Activity [7]?
Answer: Non-Toxic

Question: And the Activity (MDA-MB-231 [8])?
Answer: Active

Question: What about the inhibition in vivo at 38 mg/kg (MDA-MB-231 [9]) of the same molecule?
Answer: 61.3%

Question: And the Activity (MDA-MB-231 [10])?
Answer: Active

Question: And the IC50 at 72 h [11]?
Answer: > 40 µM

Question: And the Activity (MDA-MB-231 [12])?
Answer: Active

Question: And the Activity (MDA-MB-231 [13])?
Answer: Active

Question: And the IC50 (MDA-MB-468)?
Answer: 1.24 µM

Question: And the Activity (MDA-MB-231 [14])?
Answer: Active

Question: And the Activity (MDA-MB-231 [15])?
Answer: Active

Question: And the Activity (MDA-MB-231 [16])?
Answer: Active

Question: What about the Activity (MDA-MB-231 [17]) of the same molecule?
Answer: inactive

Question: What about the Activity (MDA-MB-231 [18]) of the same molecule?
Answer: Active

Question: And the Activity (MDA-MB-231 [19])?
Answer: Active

Question: What about the Activity (MDA-MB-231 [20]) of the same molecule?
Answer: 48.26%

Question: And the IC50 (MDA-MB-231 [21])?
Answer: 0.75 µM

Question: And the Activity [22]?
Answer: Non-Toxic

Question: What about the Activity (MDA-MB-231 [23]) of the same molecule?
Answer: inactive

Question: What about the Activity (MDA-MB-231 [24]) of the same molecule?
Answer: Active

Question: And the Activity (MDA-MB-231 [25])?
Answer: Active

Question: And the Activity [26]?
Answer: Non-Toxic

Question: And the Activity (MDA-MB-231 [27])?
Answer: Active

Question: And the IC50 (MDA-MB-436)?
Answer: 0.97 µM

Question: And the Activity (MDA-MB-231 [28])?
Answer: Active

Question: And the Activity (MDA-MB-231 [29])?
Answer: Active

Question: And the Activity [30]?
Answer: Non-Toxic

Question: What about the Activity (MDA-MB-231 [31]) of the same molecule?
Answer: Active

Question: And the Activity (MDA-MB-231 [32])?
Answer: Active

Question: And the IC50 (HCC1937)?
Answer: 1.17 µM

Question: And the Activity [33]?
Answer: Non-Toxic
